Assay results reported in US11026880B2, “Extract of passionflower seeds and cosmetic, pharmaceutical, dermatological and nutraceutical compositions comprising same” (Laboratoires Expanscience, priority 2012, dated 2021).

What was measured:
[1] = system: Normal human keratinocytes; assay: Production of reactive oxygen species in keratinocytes under H2O2 stress (DCFH-DA probe); type: cell-based; conditions: for Amount of ROS DFU/OD540 (mean ± standard deviation): 24 hours preincubation, 100 μM H2O2 20 minutes
Description: The antioxidant action of passionflower hydrolysate on oxidative stress generated by hydrogen peroxide (H2O2) in keratinocytes was evaluated by measuring the amount of reactive oxygen species produced. This test is based on the use of a probe (DCFH-DA) that breaks down and fluoresces in contact with reactive oxygen species (ROS). The fluorescence emitted will be thus proportional to the amount of ROS produced by the cell in response to oxidative stress. Normal human keratinocytes were preincubated for 24 hours in the presence of passionflower hydrolysate or the reference molecules: 10 μM quercetin or 500 μM vitamin C. The cells were then incubated for 1 hour in the presence of the probe DCFH-DA and then treated with 100 μM H2O2 for 20 minutes, still in the presence of passionflower hydrolysate or the reference molecules. The ROS assay was carried out by measuring the fluorescence emitted. The results were normalized to the number of living cells determined using a neutral red uptake assay carried out in parallel. The amount of ROS emitted is thus expressed as fluorescence density (DFU)/optical density resulting from the neutral red assay (OD540). The results were statistically analyzed by one-way analysis of variance followed by Tukey's test.

Jurkat cells = assay: Lipid peroxidation in UV-irradiated Jurkat cells (C11-fluorine probe, flow cytometry); type: cell-based; conditions: UV + 50 μM BHT
Description: The protective effect of passionflower hydrolysate on lipid peroxidation was evaluated in UV-irradiated Jurkat cells.
Jurkat cells were incubated for 45 minutes in the presence or absence of passionflower hydrolysate or the reference (50 μM BHT) and in the presence of the fluorescent probe specific for the measurement of lipid peroxides (C11-fluorine). This fluorescent probe is a lipid analog that integrates into membranes and whose fluorescence intensity decreases when peroxidized. The cells were then irradiated by UV (UVB 240 mJ/cm^2+UVA 3.5 J/cm^2) in the presence of passionflower hydrolysate or the reference. At the conclusion of the irradiation, the cells were incubated for 30 minutes at 37° C. prior to being analyzed by flow cytometry. The fluorescence intensity results obtained were expressed as a % of the irradiated control.

O=C1O[C@H]([C@@H](O)CO)C(O)=C1O [Vitamin C, vitamin C]
Amount of ROS DFU/OD540 (mean ± standard deviation) ([1]; 500 μM vitamin C): 35997.820 ± 10389.067 DFU/OD540 | inhibition at 500 µM ([1]; Homo sapiens, Keratinocyte, 500 μM vitamin C, 100 μM H2O2, read-out: Inhibition relative to the H2O2 control (ROS)): 87%

O=c1c(O)c(-c2ccc(O)c(O)c2)oc2cc(O)cc(O)c12 [Quercetin, quercetin]
Amount of ROS DFU/OD540 (mean ± standard deviation) ([1]; 10 μM quercetin): 84549.570 ± 9476.724 DFU/OD540 | inhibition at 10 µM ([1]; Homo sapiens, Keratinocyte, 10 μM quercetin, 100 μM H2O2, read-out: Inhibition relative to the H2O2 control (ROS)): 71%

Cc1cc(C(C)(C)C)c(O)c(C(C)(C)C)c1 [BHT]
Protection (%) against lipid peroxidation (Jurkat cells): 31% | Amount of lipid peroxides (% of the irradiated control) (Jurkat cells; UVB 240 mJ/cm^2+UVA 3.5 J/cm^2): 83 % of the irradiated control
